In patent US8071604B2, “Thio-substituted arylmethanesulfinyl derivatives” (Cephalon France, priority 2007, dated 2011):

Legend:
[1] = system: rats; assay: Evaluation of wake promoting activity in rats (EEG/EMG sleep/wake scoring); assay type: in vivo, rat (adult male Wistar); conditions: i.p. route, 100 mg/kg dose; for Mean AUC0-3 h values, Test compound Mean: n = 8 rats per test compound, time awake in first 3 hrs following dosing; for wakefulness as compared to vehicle-treated control groups: rats, p<0.05 vs vehicle
Procedure: Methodology: Evaluation of Wake Promoting Activity in Rats
The methodology utilized for evaluating wake promoting activity of test compounds is based on that described by Edgar and Seidel, Journal of Pharmacology and Experimental Therapeutics, 283:757-769, 1997, and incorporated herein in its entirety by reference.
Animal Surgery. Adult, male Wistar rats (275-320 g from Charles River Laboratories, Wilmington, Mass.) were anesthetized (Nembutal, 45 mg/kg, ip.) and surgically prepared with implants for recording of chronic EEG (encephalographic) and EMG (electromyographic) recording. The EEG implants were made from commercially available components (Plastics One, Roanoke, Va.). EEG signals were recorded from stainless steel screw electrodes: 2 frontal (+3.0 mm AP from bregma, ±2.0 mm ML), and 2 occipital (−4.0 mm AP from bregma, ±2.0 mm ML). Two Teflon-coated stainless steel wires were positioned under the nuchal trapezoid muscles for EMG recording. All electrode leads were inserted into a connector pedestal and the pedestal affixed to the skull by application dental acrylic. Antibiotic was administered post surgically and antibiotic cream was applied to the wound edges to prevent infection. At least one week elapsed between surgery and recording.
Recording environment. Postsurgically, rats were housed in pairs in an isolated room. Food and water were available ad libitum, ambient temperature was 21° C., and humidity was 55%. At least 24 hrs prior to recording, they were placed in Nalgene containers (31×31×31 cm) with a wire-grid top, and entry to the room was prohibited during the day of recording except for dosing. The containers were placed on a rack with two shelves, 4 containers per shelf. Fluorescent overhead room lights were set to a 24 hr. light/dark cycle (on at 7 AM, off at 7 PM). Light levels inside the containers were 38 and 25 lux for the top and bottom shelves respectively. Background white-noise (68 db inside the containers) was present in the room to mask ambient sounds.
Data acquisition. EEG and EMG signals were led via cables to a commutator (Plastics One) and then to pre-amplifiers (model 1700, A-M Systems, Carlsborg, Wash.). EEG and EMG signals were amplified (10K and 1K respectively) and bandpass filtered between 0.3 and 500 Hz for EEG and between 10 and 500 Hz for EMG. […] On the day of dosing, data was recorded for 6 to 10 hours beginning at 11 AM.
Drug administration and study design. Compounds were evaluated on groups of from 4 to 8 rats carried out over one or two separate test sessions. […]
Sleep/wake scoring. Sleep and wake activity were determined manually using ICELUS software. […]

| melting point [°C] | SMILES | Mean AUC0-3 h values, Test compound Mean [1] | wakefulness as compared to vehicle-treated control groups [1] |
| --- | --- | --- | --- |
| – | CC(=O)N1CCN(C(=O)C[S+]([O-])Cc2ccc(Oc3ccc(Cl)c(Cl)c3)cc2)CC1 (centres unmarked) [Example 22, 1-(4-Acetyl-piperazin-1-yl)-2-[4-(3,4-dichloro-phenoxy)-phenylmethanesulfinyl]-ethanone] | 162.7 % of waiking time × hr | significantly greated wakefulness |
| 153 to 154 | NC(=O)C[S+]([O-])Cc1ccccc1COc1ccccc1 (centres unmarked) | – | – |
| – | NC(=O)C[S+]([O-])Cc1ccccc1NC(=O)c1ccc(Cl)cc1 (centres unmarked) [Example 113, N-(2-Carbamoylmethanesulfinylmethyl-phenyl)-4-chloro-benzamide] | 99.0 % of waiking time × hr | significantly greated wakefulness |
